The record followed here is patent US20070059824A1, “Human umbilical cord blood-derived pluripotent fibroblast-like-macrophages” (priority 2005, published 2007).

Assay [1] has as its system insulin-expressing cells derived from TCB f-MΦ. Kind of assay: Insulin release from insulin-expressing cells derived from TCB f-MΦ (ELISA). Type of assay: cell-based, human. The note with it: 1 h. The protocol:
TPO-expanded CB f-MΦ (TCB f-MΦ) cultured in 24-well tissue culture plates (Costar, Corning, N.Y.) at 60-70% confluence was treated for 3 days with 1 μg/ml LPS+25 mM glucose in 1 ml 7% FBS-RPMI 1640 medium per well. TCB f-MΦ cultured in the same concentration of glucose served as control. Insulin release was performed as previously described with minor modifications [F. Schuit, A. De Vos, S. Farfari, K. Moens, D. Pipeleers, T. Brun, M. Prentki, Metabolic fate of glucose in purified islet cells. Glucose-regulated anaplerosis in beta cells, J. Biol. Chem. 272 (1997) 18572-18579; and N. Lumelsky, O. Blondel, P. Laeng, I. Velasco, R. Ravin, R. McKay, Differentiation of embryonic stem cells to insulin-secreting structures similar to pancreatic islets, Science 292 (2001) 1389-1394]. Cells were washed 5 times with PBS to remove the serum and then incubated with Kreb's buffer (120 mM NaCl, 5 mM KCl, 2.5 mM CaCl2, 1.1 mM MgCl2, 25 mM NaHCO3, 0.1% BSA) [N. Lumelsky, O. Blondel, P. Laeng, I. Velasco, R. Ravin, R. McKay, Differentiation of embryonic stem cells to insulin-secreting structures similar to pancreatic islets, Science 292 (2001) 1389-1394] for 30 min in the absence of glucose, at 37° C., 8% CO2 conditions. After removing the Kreb's buffer, cells were incubated with different concentration of glucose (0, 5, 10, and 25 mM) and/or other secretagogues (10 μM tolbudamide (Sigma), 500 μM diazoxide (Sigma), or 25 mM mannite (Sigma) in 300 μl Kreb's buffer/well for 1 h. Each treatment had duplicated wells. Insulin levels were monitored using an ultrasensitive human insulin enzyme-linked immunosorbent assay (ELISA) kit (Alpco Diagnostics, Windham, N.H.) following the manufacturer's protocols. Cell number/well from each treatment was finally quantified for calculating insulin level.

The test system of assay [2] is CB f-MΦ. Kind of assay: Immunostaining of TPO-expanded CB f-MΦ for phenotype markers. The class given is cell-based, human. The protocol:
For f-MΦ expansion, the cells at 70% confluence were passaged at ratio 1:2 by pippetting and gently scraping with 100 μl tips (Rainin, Woburn, Mass.). Media were changed every 5-7 days with the fresh RPMI 1640 medium supplemented with 3.5% fetal bovine serum and 5 ng/ml thrombopoietin (TPO).

For assay [3], the system named is CB f-MΦ. Kind of assay: Cell proliferation of CB f-MΦ with TPO (CyQUANT Cell Proliferation Assay). The class given is cell-based, human. The protocol: Therefore, this stage f-MΦ, at ˜80% purity, was selected to examine the effect of TPO. Cells were washed with RPMI 1640 medium three times and then incubated with different concentration of TPO, such as 80, 40, 20, 10, 5, 2.5, 1.25, 0.625, and 0 ng/ml in the 8-well Lab-Tek chamber slides (Nunc, Naperville, Ill.) at 37° C., 8% CO2 conditions. After 4 days, cell proliferation was evaluated using CyQUANT® Cell Proliferation Assay Kit (Molecular Probes, Eugene, Oreg.). Cell fluorescence was measured using a Synergy HT Multi-Detection microplate reader (Bio-Tek Instruments Inc., Winooski, Vt.) equipped with filters for ˜480 nm excitation and ˜520 nm emission. The optical values were analyzed using the manufacturer's software KC4 v3.1.

For assay [4], the system named is TCB f-MΦ. The assay can be described thus: Differentiation of f-MΦ into insulin-expressing cells with LPS and high glucose (immunostaining). Type of assay: cell-based, human. The text has this:
The final insulin concentration in the culture medium was 0.196 μU/ml.

In assay [5] the test system is TCB f-MΦ. The note with it: 50 ng/ml VEGF for 5-7 days.
Experimental: The cells were incubated for 20 min at room temperature with 2.5% diluted normal horse serum (Vector Laboratories, Burlingame, Calif.) to block nonspecific staining. Cells were then incubated with primary antibodies, the isotype-matched IgG1κ (BD PharMingen, San Diego, Calif.) (as control for mouse monoclonal antibodies), and normal rabbit serum (as control for rabbit polyclonal antibodies). After staining, the slides were mounted with Mounting Medium (Vector Laboratories, Burlingame, Calif.). Cells were viewed and photographed using a Zeiss LSM 510 META confocal microscope equipped with a 25× water immersion objective (Carl Zeiss Inc.), with Argon 488 nm laser for FITC fluorochrome filtered through LP505.
The TPO-expanded CB f-MΦ was treated with 50 ng/ml VEGF (Cell Sciences Inc., Canton, Mass.) in RPMI-1640 medium supplemented with 7% heat inactivated FBS as previously described [Y. Zhao, D. Glesne, E. Huberman, A human peripheral blood monocyte-derived subset acts as pluripotent stem cells, Proc. Natl. Acad. Sci. U.S.A. 100 (2003) 2426-2431]. After 5-7 days, the treated and untreated cells were prepared for characterizing with endothelial markers, including antibodies to Flt-1, Flk-1, vWF, CD31, and incorporating Dil-Ac-LDL as previously described [D. A. Ingram, L. E. Mead, H. Tanaka, V. Meade, A. Fenoglio, K. Mortell, K. Pollok, M. J. Ferkowicz, D. Gilley, M. C.
For assay [6], the system named is Human umbilical cord blood-derived monocytes. Kind of assay: Generation of f-MΦ from cord blood monocytes with M-CSF (morphology, cell counting). The class given is cell-based. The protocol:
Human umbilical cord blood samples (50-100 ml/unit) were obtained from healthy donors (Life-Source Blood Services, Glenview, Ill.). The f-MΦ culture was performed as previously described using human peripheral blood (14). Briefly, purified monocytes were seeded into the 8-Well Lab-Tek II Chamber Slide (Fisher Scientific) at 1×10^5 cells/ml, 0.5 ml/well in RPMI 1640 medium supplemented with 7% fetal bovine serum (Invitrogen, Carlsbad, Calif.) and 50 ng/ml M-CSF. The purity of f-MΦ normally reached 80-90% after incubation for 10-14 days at 37° C., 8% CO2 and was then used for experiments.

Where [7] appears, read: 5 ng/ml TPO, culture for 2 months.

With `CC1=NS(=O)(=O)c2cc(Cl)ccc2N1` [diazoxide], the insulin release entry in assay [1] (500 μM, in the presence of 25 mM glucose) is reported as “inhibits insulin release”.

Take `OC[C@@H](O)[C@@H](O)[C@H](O)[C@H](O)CO` [mannite]: the insulin release result in assay [1] (25 mM, osmolarity control) is “failed to stimulate insulin release”.

For the molecule `CCCCNC(=O)NS(=O)(=O)c1ccc(C)cc1` [tolbutamide], in assay [1] (10 μM, in the presence of 5 mM glucose), the insulin release entry was “stimulates insulin release”.

Consider Thrombopoietin [TPO], for which, in the assay on CB f-MΦ [2] (setting [7]), the “CD34 expression, share of cells” value is around 30%; the “expression of CD45, CD14, CD163 and CD117” value was “at the same level as parental CB f-MΦ”. Also, the “expression of platelet and megakaryocyte markers CD41a, CD41b, CD42b” value in the assay with CB f-MΦ [2] (4th and 5th passaged cells after TPO expansion) was “not induced”. Further, in the assay with CB f-MΦ [3] (TPO 2.5-5 ng/ml), the “cell number relative to TPO-untreated CB f-MΦ” value is given as “about 2 times” and the “cell number relative to control monocytes” value is on record as around 10 times. In addition, the “proliferation of CB f-MΦ at higher dosage” value in the assay with CB f-MΦ [3] (TPO >40 ng/ml) is given as “inhibited the proliferation”.

With lipopolysaccharide [LPS], the “cells expressing glucagon-like peptide 1 receptor” value in the assay with TCB f-MΦ [4] (CB f-MΦ, 50 ng/ml LPS in the presence of 25 mM glucose for 2 days) is “around 70%”. Further, the “cells strongly positive for insulin and C-peptide” value in the assay on TCB f-MΦ [4] (LPS 1 μg/ml in the presence of 25 mM glucose) is on record as 85-90%.

In the case of “vascular endothelial cell growth factor [VEGF]”, in the assay on TCB f-MΦ [5], the “expression of endothelial cell-associated markers” value is “significantly expressed Flt-1, Flk-1, vWF, and CD31”.

B1: macrophage colony-stimulating factor (protein, UniProt P09603 33-554, looked up)
Macrophage colony-stimulating …: EEVSEYCSHMIGSGHLQSLQRLIDSQMETSCQITFEFVDQEQLKDPVCYLKKAFLLVQDIMEDTMRFRDNTPNAIAIVQLQELSLRLKSCFTKDYEEHDKACVRTFYETPLQLLEKVKNVFNETKNLLDKDWNIFSKNCNNSFAECSSQDVVTKPDCNCLYPKAIPSSDPASVSPHQPLAPSMAPVAGLTWEDSEGTEGSSLLPGEQPLHTVDPGSAKQRPPRSTCQSFEPPETPVVKDSTIGGSPQPRPSVGAFNPGMEDILDSAMGTNWVPEEASGEASEIPVPQGTELSPSRPGGGSMQTEPARPSNFLSASSPLPASAKGQQPADVTGTALPRVGPVRPTGQDWNHTPQKTDHPSALLRDPPEPGSPRISSLRPQGLSNPSTLSAQPQLSRSHSSGSVLPLGELEGRRSTRDRRSPAEPEGGPASEGAARPLPRFNSVPLTDTGHERQSEGSFSPQLQESVFHLLVPSVILVLLAVGGLLFYRWRRRSHQEPQRADSPLEQPEGSPLTQDDRQVELPV
notes: Recombinant human macrophage colony-stimulating factor from Sigma
For the molecule B1, the cells elongated in assay [6] (50 ng/ml M-CSF for 10-14 days) is reported as 80-90%. In addition, the cell number result in assay [6] (50 ng/ml M-CSF, FIG. 1) is given as “significantly increased the cell number”.
